# Where two headings read alike, the source gives them in different places.
# Columns and labels:
# [1] = tested on: immobility time in the forced swim test; settings: without significantly altering locomotor activity, cited from earlier work
# [2] = tested on: extracellular DA levels in the rat striatum; assay: microdialysis: extracellular DA levels in the rat striatum
# [3] = tested on: extracellular NE levels in the rat striatum; assay: microdialysis: extracellular NE levels in the rat striatum
# [4] = tested on: extracellular 5-HT levels in the rat striatum; assay: microdialysis: extracellular 5-HT levels in the rat striatum
# [5] = tested on: immobility time in the forced swim test; settings: tested 0.5, 1, 2 and 4 h post-dosing
# Procedure: Forced swim test was used to measure the depression-like behavior in rats after acute and chronic drug treatment. Animals were randomly divided into six groups. The animals in Groups 1, 2 and 3 were used for acute treatment, and the animals in Groups 4, 5 and 6 were used for chronic treatment (once a day for 14 days). […] The entire test was performed in 2 consecutive days: a 15-min pretest session on day 1 followed by a 5-min test session the next day. On the pretest day, rats were individually forced to swim for 15 min in a plastic cylinder (diameter 22 cm, height 46 cm) containing water (25±1°C) with a depth of 30 cm. On the test day, rats were placed in the cylinder again for a 5-min test trial at 0.5, 1, 2 and 4 h post-dosing (n = 10 rats per time point in each group). The total duration of immobilization was recorded. The criterion for immobilization was vertical floating in the water and movements necessary to keep the head above the water. After the test, animals were removed and dried with towels before returning to their home cage.
# [6] = chronic oral suspension 0.06 mmol·kg^−1·day^−1 for 14 days
# [7] = acute oral administration (oral solution, oral suspension 0.06 mmol·kg^−1)
smiles,measurement,setting,value
CC(NC(C)(C)C)C(=O)c1cccc(Cl)c1 (stereo not shown) [bupropion],immobility time in the forced swim test,[1]; 10 mg/kg,reduce the immobility time
CN(C)CC(c1ccc(O)cc1)C1(O)CCCCC1 (stereo not shown) [desvenlafaxine],effect on extracellular DA levels,"[2]; acute, oral administration or intravenous administration",did not significantly alter the extracellular DA levels
same,effect on extracellular DA levels,[2]; [6],did not significantly alter the extracellular DA levels
same,effect on extracellular NE levels vs. relative vehicle,[3]; acute intravenous administration 0.04 mmol·kg^−1,marked and significant increases
same,effect on extracellular NE levels vs. relative vehicle,[3]; [7],slight but significant increases
same,extracellular NE peak value (% of basal),"[3]; chronic oral suspension 0.06 mmol·kg^−1·day^−1 for 14 days, at 60 min",139±9%
same,extracellular 5-HT levels increased to (% of basal),"[4]; acute intravenous solution 0.04 mmol·kg^−1, after the initial 90 min decrease, then returned to basal",162±15%
same,decrease in extracellular 5-HT levels,"[4]; acute intravenous solution 0.04 mmol·kg^−1, during the first 90 min post-dosing",90%
same,effect on extracellular 5-HT levels vs. relative vehicle,[4]; [7],slight but significant increases
same,increase in 5-HT AUC0–240 min value of the vehicle group,[4]; [6],187±25%
same,immobility time in the forced swim test vs. vehicle,[5]; acute oral suspension 0.06 mmol·kg^−1,only significantly reduced the immobility time at 1 h
same,immobility time in the forced swim test vs. vehicle,[5]; [6],significantly reduced the immobility time
CN1Cc2c(N)cccc2C(c2ccccc2)C1 (stereo not shown) [nomifensine],immobility time in the forced swim test,[1]; 2.5 mg/kg,reduce the immobility time

# Reference: article PMC3948889, “The Effects of LPM570065, a Novel Triple Reuptake Inhibitor, on Extracellular Serotonin, Dopamine and Norepinephrine Levels in Rats” (PLoS ONE, 2014)
